Source: PubChem BioAssay AID1406 (The Scripps Research Institute Molecular Screening Center, 2008)
Activity calls are given as the source filed them.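 The calls were made as follows: active = STAT1 reporter activators whose half-maximal activating concentration EC50 is 10 µM or lower; inactive = EC50 above 10 µM or no activation.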

Test system: NIH 3T3 STAT1 luciferase reporter, luminescence
Assay: STAT1 reporter activators, potency curves, dose response, counter-screen for STAT3 activator project, cell-based, NIH 3T3, luciferase luminescence (AID 1406)
Details: cells stimulated with IFN-gamma at EC80

Q: `CN1N=C(C(=O)N2CCc3c([nH]c4ccccc34)C2c2c(F)cccc2Cl)CCC1=O` (stereo unspecified) was tested. Which EC50 did it give?
A: The EC50 was > 55.7 µM (inactive).

Q: For `CC(C)CC1c2[nH]c3ccccc3c2CCN1C(=O)CCC(=O)N(C)C` (stereo unspecified), which EC50 is on record?
A: Its EC50 is > 55.7 µM (inactive).

Q: Which EC50 does the source give for `O=C(Nc1nnc(-c2ccccc2Cl)o1)c1nc2ccccc2s1` here?
A: The EC50 was > 55.7 µM (inactive).

Q: `COCCNC(=O)C(=O)NNC(=O)c1ccccc1OC` was tested. Which EC50 did it give?
A: Its EC50 is > 55.7 µM (inactive).

Q: With `CCCSc1nnc(Sc2nnnn2-c2ccccc2)s1` as the molecule, how does the EC50 read?
A: The EC50 was > 55.7 µM (inactive).

Q: How did the EC50 turn out when `Cc1nn(-c2ccc(Cl)cc2)c(N)c1C(O)(CSc1nccn1C)C(F)(F)F` (stereo unspecified) was run?
A: Its EC50 is > 55.7 µM (inactive).

Q: Which EC50 does the source give for `O=C(CCc1nnc(Cc2ccc3c(c2)OCO3)o1)NCc1nc2ccccc2s1` here?
A: The EC50 was > 55.7 µM (inactive).

Q: With `O=C(c1cccnc1)N1CCc2ccccc21` as the molecule, how does the EC50 read?
A: Its EC50 is > 55.7 µM (inactive).

Q: Which EC50 does the source give for `CCOC(=O)CC1C(=O)NCCN1C(=O)c1cc2c(=O)n3cccc(C)c3nc2s1` (stereo unspecified) here?
A: Its EC50 is > 55.7 µM (inactive).

Q: How did the EC50 turn out when `COCc1cc(C)nc2sc(C(=O)NN)c(-n3cccc3)c12` was run?
A: Its EC50 is > 55.7 µM (inactive).

Q: Which EC50 does the source give for `COc1cccc(-c2nc(N3CCCCC3C)c3ccccc3n2)c1O` (stereo unspecified) here?
A: Its EC50 is > 55.7 µM (inactive).

Q: `COc1cc(NC(=O)c2cc(C3CC3)on2)c(OC)cc1Cl` was tested. Which EC50 did it give?
A: Its EC50 is > 55.7 µM (inactive).

Q: `COCCNC(=O)c1cc2c(-c3ccc(Cl)cc3)nn(C)c2s1` was tested. Which EC50 did it give?
A: The EC50 was > 55.7 µM (inactive).

Q: With `Cc1cc(-c2ccc(Cl)cc2)c(C#N)c(N)n1` as the molecule, how does the EC50 read?
A: Its EC50 is > 55.7 µM (inactive).

Q: With `CC(OC(=O)c1cccnc1SCc1cc(=O)n2ccccc2n1)c1ccccn1` (stereo unspecified) as the molecule, how does the EC50 read?
A: Its EC50 is > 55.7 µM (inactive).

Q: With `CN(Cc1ccccc1)Cc1c[nH]c2ccccc12` as the molecule, how does the EC50 read?
A: Its EC50 is > 55.7 µM (inactive).
